pIC50: −log10 of the molar value.
Target: T1, recombinant human 11 β-HSD1 (Homo sapiens, UniProt P28845)
T1 construct: made in house; host or cells: E. coli
Assay: 11 β-HSD1 SPA Assay (Scintillation Proximity Assay)
Format: biochemical
Summary of the method: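 Scintillation proximity read-out of cortisol formed from 40 nM [3H]cortisone by purified recombinant human enzyme (30-100 nM, E. coli) with 1 mM NADPH, pH7.4, 2 hours at room temperature; beads with cortisol antibody and glycyrrhetinic acid stop the reaction, read next day. IC50 derived from inhibition normalised to background and maximal wells.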

T1 sequence (P28845 whole entry): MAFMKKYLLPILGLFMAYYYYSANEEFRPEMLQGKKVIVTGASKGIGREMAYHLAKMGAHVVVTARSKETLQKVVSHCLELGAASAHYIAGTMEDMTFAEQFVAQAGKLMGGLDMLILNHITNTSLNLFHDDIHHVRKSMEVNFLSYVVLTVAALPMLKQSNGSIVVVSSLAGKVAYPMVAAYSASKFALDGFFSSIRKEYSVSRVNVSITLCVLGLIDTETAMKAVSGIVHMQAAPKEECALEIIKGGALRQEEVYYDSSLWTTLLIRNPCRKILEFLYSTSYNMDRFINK

SMILES | pIC50
CC(C)(Oc1ccc(Cl)cc1S(C)(=O)=O)C(=O)N[C@H]1C[C@H]2CC[C@@H](C1)N2c1ccc(S(N)(=O)=O)cn1 [Example 293, N-{8-[5-(aminosulfonyl)pyridin-2-yl]-8-azabicyclo[3.2.1]oct-3-endo-yl}-2-{[4-chloro-2-(methylsulfonyl)phenyl]oxy}-2-methylpropanamide] | > 5.70
CC(C)(Oc1ccc(F)cc1F)C(=O)N[C@H]1C[C@H]2CC[C@@H](C1)N2c1ccc(S(N)(=O)=O)cn1 [Example 294, N-{8-[5-(aminosulfonyl)pyridin-2-yl]-8-azabicyclo[3.2.1]oct-3-endo-yl}-2-[(2,4-difluorophenyl)oxy]-2-methylpropanamide] | > 6.70
CC(C)(Oc1ccc(Cl)cc1Cl)C(=O)N[C@H]1C[C@H]2CC[C@@H](C1)N2Cc1ccc(C(N)=O)cc1 [Example 295, 4-{[3-endo-({2-[(2,4-dichlorophenyl)oxy]-2-methylpropanoyl}amino)-8-azabicyclo[3.2.1]oct-8-yl]methyl}benzamide] | > 5.70
CC(C)(Oc1ccc(F)cc1S(C)(=O)=O)C(=O)N[C@H]1C[C@H]2CC[C@@H](C1)N2c1ccc(C(=O)NCC(F)(F)F)cn1 [Example 296, 6-{3-endo-[(2-{[4-fluoro-2-(methylsulfonyl)phenyl]oxy}-2-methylpropanoyl)amino]-8-azabicyclo[3.2.1]oct-8-yl}-N-(2,2,2-trifluoroethyl)pyridine-3-carboxamide] | > 6.70
CC(C)(Oc1ccc(Cl)c2ccccc12)C(=O)N[C@H]1C[C@H]2CC[C@@H](C1)N2c1ccc(C(N)=O)cn1 [Example 297, 6-[3-endo-({2-[(4-chloronaphthalen-1-yl)oxy]-2-methylpropanoyl}amino)-8-azabicyclo[3.2.1]oct-8-yl]pyridine-3-carboxamide] | > 6.70
CC(C)(Oc1ccc(F)cc1S(C)(=O)=O)C(=O)N[C@H]1C[C@H]2CC[C@@H](C1)N2c1ccc(S(N)(=O)=O)cn1 [Example 298, N-{8-[5-(aminosulfonyl)pyridin-2-yl]-8-azabicyclo[3.2.1]oct-3-endo-yl}-2-{[4-fluoro-2-(methylsulfonyl)phenyl]oxy}-2-methylpropanamide] | > 5.70
CC(C)(Oc1ccc(Cl)cc1C(F)(F)F)C(=O)N[C@H]1C[C@H]2CC[C@@H](C1)N2c1ccc(S(C)(=O)=O)nc1 [Example 299, 2-{[4-chloro-2-(trifluoromethyl)phenyl]oxy}-2-methyl-N-{8-[6-(methylsulfonyl)pyridin-3-yl]-8-azabicyclo[3.2.1]oct-3-endo-yl}propanamide] | > 6.70
CC(C)(Oc1ccccc1S(C)(=O)=O)C(=O)N[C@H]1C[C@H]2CC[C@@H](C1)N2c1ccc(C(=O)NCC(F)(F)F)cn1 [Example 300, 6-{3-endo-[(2-methyl-2-{[2-(methylsulfonyl)phenyl]oxy}-propanoyl)amino]-8-azabicyclo[3.2.1]oct-8-yl}-N-(2,2,2-trifluoroethyl)pyridine-3-carboxamide] | > 5.70
CC(C)(Oc1ccc(Cl)cc1Cl)C(=O)N1[C@@H]2CC[C@H]1C[C@@H](Nc1ccc(C(N)=O)cn1)C2 [Example 302, 6-[(8-{2-[(2,4-dichlorophenyl)oxy]-2-methylpropanoyl}-8-azabicyclo[3.2.1]oct-3-endo-yl)amino]pyridine-3-carboxamide] | > 6.70
CC(C)(Oc1cc(Cl)c(C(C)(C)O)cc1Cl)C(=O)N[C@H]1C[C@H]2CC[C@@H](C1)N2c1ccc(C(=O)NCC(F)F)cn1 [Example 303, 6-[3-endo-({2-[2,5-dichloro-4-(2-hydroxypropan-2-yl)phenoxy]-2-methylpropanoyl}amino)-8-azabicyclo[3.2.1]oct-8-yl]-N-(2,2-difluoroethyl)pyridine-3-carboxamide] | > 6.70
CC(C)(Oc1cc(F)c(C(C)(C)O)cc1Cl)C(=O)N[C@H]1C[C@H]2CC[C@@H](C1)N2c1ccc(C(=O)NCC(F)F)cn1 [Example 304, 6-[3-endo-({2-[2-chloro-5-fluoro-4-(2-hydroxypropan-2-yl)phenoxy]-2-methylpropanoyl}amino)-8-azabicyclo[3.2.1]oct-8-yl]-N-(2,2-difluoroethyl)pyridine-3-carboxamide] | > 6.70
CC(C)(Oc1ccc(Cl)cc1C(F)(F)F)C(=O)N[C@H]1C[C@H]2CC[C@@H](C1)N2c1ccc(-c2nnn[nH]2)nc1 [Example 306, 2-{[4-chloro-2-(trifluoromethyl)phenyl]oxy}-2-methyl-N-{8-[6-(1H-tetrazol-5-yl)pyridin-3-yl]-8-azabicyclo[3.2.1]oct-3-endo-yl}propanamide] | > 6.70
CC(C)(Oc1ccc(Cl)cc1Cl)C(=O)N[C@H]1C[C@H]2CC[C@@H](C1)N2c1ccc(S(C)(=O)=O)nc1 [Example 307, 2-[(2,4-dichlorophenyl)oxy]-2-methyl-N-{8-[6-(methylsulfonyl)pyridin-3-yl]-8-azabicyclo[3.2.1]oct-3-endo-yl}propanamide] | > 6.70
CC(C)(C(=O)N[C@H]1C[C@H]2CC[C@@H](C1)N2c1ccc(S(C)(=O)=O)cn1)S(=O)(=O)c1ccc(Cl)cc1Cl [Example 308, 2-[(2,4-dichlorophenyl)sulfonyl]-2-methyl-N-{8-[5-(methylsulfonyl)pyridin-2-yl]-8-azabicyclo[3.2.1]oct-3-endo-yl}propanamide] | > 5.70
CC(C)(Oc1cc(F)ccc1C(F)(F)F)C(=O)N[C@H]1C[C@H]2CC[C@@H](C1)N2c1ccc(C(N)=O)cn1 [Example 309, 6-{3-endo-[(2-{[5-fluoro-2-(trifluoromethyl)phenyl]oxy}-2-methylpropanoyl)amino]-8-azabicyclo[3.2.1]oct-8-yl}pyridine-3-carboxamide] | > 6.70
CC(C)(Oc1ccc2ccccc2n1)C(=O)N[C@H]1C[C@H]2CC[C@@H](C1)N2c1ccc(C(N)=O)cn1 [Example 310, 6-(3-endo-{[2-methyl-2-(quinolin-2-yloxy)propanoyl]amino}-8-azabicyclo[3.2.1]oct-8-yl)pyridine-3-carboxamide] | > 6.70
CS(=O)(=O)c1cccc(C2(C(=O)N[C@H]3C[C@H]4CC[C@@H](C3)N4c3ccc(C(N)=O)cn3)CC2)c1 [Example 311, 6-{3-endo-[({1-[3-(methylsulfonyl)phenyl]cyclo-propyl}carbonyl)amino]-8-azabicyclo[3.2.1]oct-8-yl}pyridine-3-carboxamide] | > 6.70
CC(C)(COc1ccc(Cl)cc1C(F)(F)F)C(=O)N[C@H]1C[C@H]2CC[C@@H](C1)N2c1ccc(C(=O)NCC(F)(F)F)cn1 [Example 312, 6-{3-endo-[(3-{[4-chloro-2-(trifluoromethyl)phenyl]oxy}-2,2-dimethylpropanoyl)amino]-8-azabicyclo[3.2.1]oct-8-yl}-N-(2,2,2-trifluoroethyl)pyridine-3-carboxamide] | > 6.70
CS(=O)(=O)c1cccc(C2(C(=O)N[C@H]3C[C@H]4CC[C@@H](C3)N4c3ccc(S(N)(=O)=O)cn3)CC2)c1 [Example 313, N-{8-[5-(aminosulfonyl)pyridin-2-yl]-8-azabicyclo[3.2.1]oct-3-endo-yl}-1-[3-(methylsulfonyl)phenyl]cyclo-propanecarboxamide] | > 5.70
CC(C)(Oc1ncc(Cl)cc1C(F)(F)F)C(=O)N[C@H]1C[C@H]2CC[C@@H](C1)N2c1ccc(S(C)(=O)=O)cn1 [Example 314, 2-{[5-chloro-3-(trifluoromethyl)pyridin-2-yl]oxy}-2-methyl-N-{8-[5-(methylsulfonyl)pyridin-2-yl]-8-azabicyclo[3.2.1]oct-3-endo-yl}propanamide] | > 6.70
CC(C)(Oc1ccc(F)cc1Cl)C(=O)N[C@H]1C[C@H]2CC[C@@H](C1)N2c1ccc(NS(C)(=O)=O)cc1 [Example 315, 2-[(2-chloro-4-fluorophenyl)oxy]-2-methyl-N-(8-{4-[(methylsulfonyl)amino]phenyl}-8-azabicyclo[3.2.1]oct-3-endo-yl)propanamide] | > 6.70
CC(C)(Oc1ccc2ccccc2c1)C(=O)N[C@H]1C[C@H]2CC[C@@H](C1)N2c1ccc(C(N)=O)cn1 [Example 316, 6-(3-endo-{[2-methyl-2-(naphthalen-2-yloxy)propanoyl]amino}-8-azabicyclo[3.2.1]oct-8-yl)pyridine-3-carboxamide] | > 6.70
CC(C)(Oc1ccc(Cl)cc1Cl)C(=O)N[C@H]1C[C@H]2CC[C@@H](C1)N2c1ccc(C(=O)NC2COC2)cn1 [Example 317, 6-[3-endo-({2-[(2,4-dichlorophenyl)oxy]-2-methylpropanoyl}amino)-8-azabicyclo[3.2.1]oct-8-yl]-N-oxetan-3-ylpyridine-3-carboxamide] | > 6.70
CC(C)(Oc1ccnc2ccccc12)C(=O)N[C@H]1C[C@H]2CC[C@@H](C1)N2c1ccc(C(N)=O)cn1 [Example 318, 6-(3-endo-{[2-methyl-2-(quinolin-4-yloxy)propanoyl]amino}-8-azabicyclo[3.2.1]oct-8-yl)pyridine-3-carboxamide] | > 6.70
CC(C)(Oc1cc(F)ccc1C(F)(F)F)C(=O)N[C@H]1C[C@H]2CC[C@@H](C1)N2c1ccc(C(=O)NCC(F)(F)F)cn1 [Example 319, 6-{3-endo-[(2-{[5-fluoro-2-(trifluoromethyl)phenyl]oxy}-2-methylpropanoyl)amino]-8-azabicyclo[3.2.1]oct-8-yl}-N-(2,2,2-trifluoroethyl)pyridine-3-carboxamide] | > 6.70
CC(C)(Oc1ccc(Cl)cc1C1CCCC1)C(=O)N[C@H]1C[C@H]2CC[C@@H](C1)N2c1ccc(C(N)=O)cn1 [Example 320, 6-[3-endo-({2-[(4-chloro-2-cyclopentylphenyl)oxy]-2-methylpropanoyl}amino)-8-azabicyclo[3.2.1]oct-8-yl]pyridine-3-carboxamide] | > 6.70
CC(C)(Oc1ccc(Cl)cc1S(C)(=O)=O)C(=O)N[C@H]1C[C@H]2CC[C@@H](C1)N2c1ccc(C(=O)NCC(F)(F)F)cn1 [Example 321, 6-{3-endo-[(2-{[4-chloro-2-(methylsulfonyl)phenyl]oxy}-2-methylpropanoyl)amino]-8-azabicyclo[3.2.1]oct-8-yl}-N-(2,2,2-trifluoroethyl)pyridine-3-carboxamide] | > 6.70
